Experimental data published in ChEMBL document CHEMBL5506069, “A Unique Hybridization Route to Access Hydrazylnaphthalimidols as Novel Structural Scaffolds of Multitargeting Broad-Spectrum Antifungal Candidates” (J Med Chem, 2024).
Values after ≈ are worked out from the molar mass of the structure shown. Active and inactive are the calls of the source. No cut-off for these calls is given here.

Tests used:
Candida tropicalis = experiment: Antifungal activity against Candida tropicalis assessed as inhibition of fungal growth incubated for 24 hrs by CLSI based microbroth dilution method; assay type: functional
Candida parapsilosis = experiment: Antifungal activity against Candida parapsilosis ATCC 22019 assessed as inhibition of fungal growth incubated for 24 hrs by CLSI based microbroth dilution method; assay type: functional; conditions: Lodderomyces parapsilosis
Candida albicans [1] = experiment: Antifungal activity against Candida albicans ATCC 90023 assessed as inhibition of fungal growth incubated for 24 hrs by CLSI based microbroth dilution method; assay type: functional
Candida albicans [2] = experiment: Potency index, ratio of fluconazole MIC to test compound MIC for antifungal activity against Candida albicans ATCC 90023 assessed as inhibition of fungal growth incubated for 24 hrs by CLSI based microbroth dilution method; assay type: functional
Candida albicans [3] = experiment: Antifungal activity against Candida albicans assessed as inhibition of fungal growth incubated for 24 hrs by CLSI based microbroth dilution method; assay type: functional
Aspergillus fumigatus = experiment: Antifungal activity against Aspergillus fumigatus assessed as inhibition of fungal growth incubated for 24 hrs by CLSI based microbroth dilution method; assay type: functional
Cell membrane = experiment: Induction of cell membrane potential loss in Candida albicans assessed as change in fluorescence intensity at 4 times MIC measured for 30 mins by DiSC3-5 dye based fluorescence method; assay type: subcellular
Candida albicans [4] = experiment: Antifungal activity against Candida albicans measured after at 8 passages; assay type: functional, organism-based
Candida albicans [5] = experiment: Antibiofilm activity against Candida albicans assessed as inhibition of biofilm formation at 0.5 to 8 microg/ml measured for 24 hrs by crystal violet staining based; assay type: functional; conditions: dose 0.5-8 µg/ml

| SMILES | MIC (Candida tropicalis) [µM] | MIC (Candida parapsilosis) [µM] | MIC (Candida albicans [1]) [µM] | Ratio (Candida albicans [2]) | MIC (Candida albicans [3]) [µM] | MIC (Aspergillus fumigatus) [µM] | Activity (Cell membrane) | Activity (Candida albicans [4]) | inhibition (Candida albicans [5]) |
| --- | --- | --- | --- | --- | --- | --- | --- | --- | --- |
| CCCCc1nc(Cl)c(/C=N/Nc2ccc3c4c(cccc24)C(=O)N(CCO)C3=O)n1Cc1cccc(Cl)c1 | 28 (≈ 15.8 µg/mL) | 57 (≈ 32.2 µg/mL) | 2 (≈ 1.13 µg/mL) | 16 | 57 (≈ 32.2 µg/mL) | 114 (≈ 64.3 µg/mL) |  |  |  |
| O=C1c2cccc3c(N/N=C/c4ccc[n+](Cc5ccc([N+](=O)[O-])cc5)c4)ccc(c23)C(=O)N1CCO | 111 | 14 | 56 |  | 56 | 111 | inactive |  |  |
| OC(Cn1cncn1)(Cn1cncn1)c1ccc(F)cc1F [FLUCONAZOLE] | 13 (≈ 3.98 µg/mL) | 26 (≈ 7.96 µg/mL) | 33 (≈ 10.1 µg/mL) |  | 13 (≈ 3.98 µg/mL) | 418 (≈ 128 µg/mL) |  | inactive | inactive |
| O=C1c2cccc3c(N/N=C/c4cncs4)ccc(c23)C(=O)N1CCO | 87 (≈ 31.9 µg/mL) | 22 (≈ 8.06 µg/mL) | 44 (≈ 16.1 µg/mL) |  | 350 (≈ 128 µg/mL) | 175 (≈ 64.1 µg/mL) |  |  |  |
| CCCCN1C(=O)c2cccc3c(N/N=C(\C)Cn4c([N+](=O)[O-])cnc4C)ccc(c23)C1=O | 1140 (≈ 512 µg/mL) | 1140 (≈ 512 µg/mL) | 1140 (≈ 512 µg/mL) |  | 1140 (≈ 512 µg/mL) | 1140 (≈ 512 µg/mL) |  |  |  |
| O=C1c2cccc3c(N/N=C/c4cc[nH]c4)ccc(c23)C(=O)N1CCO | 23 (≈ 8.01 µg/mL) | 46 (≈ 16 µg/mL) | 367 (≈ 128 µg/mL) |  | 367 (≈ 128 µg/mL) | 92 (≈ 32 µg/mL) |  |  |  |
| CCCCCn1c(CCCC)nc(Cl)c1/C=N/Nc1ccc2c3c(cccc13)C(=O)N(CCO)C2=O | 16 (≈ 8.16 µg/mL) | 251 (≈ 128 µg/mL) | 126 (≈ 64.3 µg/mL) |  | 251 (≈ 128 µg/mL) | 63 (≈ 32.1 µg/mL) |  |  |  |
| C/C(Cn1c([N+](=O)[O-])cnc1C)=N\Nc1ccc2c3c(cccc13)C(=O)N(Cc1ccc(F)cc1)C2=O | 1020 (≈ 512 µg/mL) | 1020 (≈ 512 µg/mL) | 1020 (≈ 512 µg/mL) |  | 1020 (≈ 512 µg/mL) | 1020 (≈ 512 µg/mL) |  |  |  |
| O=C1c2cccc3c(N/N=C/c4nccs4)ccc(c23)C(=O)N1CCO | 175 (≈ 64.1 µg/mL) | 175 (≈ 64.1 µg/mL) | 350 (≈ 128 µg/mL) |  | 699 (≈ 256 µg/mL) | 350 (≈ 128 µg/mL) |  |  |  |
| CCCCc1nc(Cl)c(/C=N/Nc2ccc3c4c(cccc24)C(=O)N(CCO)C3=O)n1CCC | 67 (≈ 32.3 µg/mL) | 266 (≈ 128 µg/mL) | 67 (≈ 32.3 µg/mL) |  | 133 (≈ 64.1 µg/mL) | 33 (≈ 15.9 µg/mL) |  |  |  |
| CCCCc1nc(Cl)c(/C=N/Nc2ccc3c4c(cccc24)C(=O)N(CCO)C3=O)n1CC1CC1 | 32 (≈ 15.8 µg/mL) | 65 (≈ 32.1 µg/mL) | 8 (≈ 3.95 µg/mL) |  | 65 (≈ 32.1 µg/mL) | 8 (≈ 3.95 µg/mL) |  |  |  |
| O=C1c2cccc3c(N/N=C/c4ccc(O)cc4O)ccc(c23)C(=O)N1CCO | 655 (≈ 256 µg/mL) | 327 (≈ 128 µg/mL) | 655 (≈ 256 µg/mL) |  | 327 (≈ 128 µg/mL) | 327 (≈ 128 µg/mL) |  |  |  |
| CN1C(=O)c2cccc3c(N/N=C/c4ccc([N+](=O)[O-])o4)ccc(c23)C1=O | 87 (≈ 31.7 µg/mL) | 350 (≈ 128 µg/mL) | 175 (≈ 63.8 µg/mL) |  | 87 (≈ 31.7 µg/mL) | 87 (≈ 31.7 µg/mL) |  |  |  |
| Cc1ccc(/C=N/Nc2ccc3c4c(cccc24)C(=O)N(CCO)C3=O)o1 | 84 (≈ 30.5 µg/mL) | 169 (≈ 61.4 µg/mL) | 84 (≈ 30.5 µg/mL) |  | 42 (≈ 15.3 µg/mL) | 338 (≈ 123 µg/mL) |  |  |  |
| C/C(Cn1c([N+](=O)[O-])cnc1C)=N\Nc1ccc2c3c(cccc13)C(=O)N(c1ccc(F)c(Cl)c1)C2=O | 246 (≈ 128 µg/mL) | 246 (≈ 128 µg/mL) | 983 (≈ 512 µg/mL) |  | 491 (≈ 256 µg/mL) | 983 (≈ 512 µg/mL) |  |  |  |
| CCCCc1nc(Cl)c(/C=N/Nc2ccc3c4c(cccc24)C(=O)N(CCO)C3=O)n1CC1CCCCC1 | 15 (≈ 8.04 µg/mL) | 60 (≈ 32.2 µg/mL) | 7 (≈ 3.75 µg/mL) |  | 120 (≈ 64.3 µg/mL) | 2 (≈ 1.07 µg/mL) |  |  |  |
| O=C1c2cccc3c(N/N=C/c4ncc[nH]4)ccc(c23)C(=O)N1CCO | 92 (≈ 32.1 µg/mL) | 6 (≈ 2.1 µg/mL) | 183 (≈ 63.9 µg/mL) |  | 367 (≈ 128 µg/mL) | 183 (≈ 63.9 µg/mL) |  |  |  |
| CCCN1C(=O)c2cccc3c(N/N=C(\C)Cn4c([N+](=O)[O-])cnc4C)ccc(c23)C1=O | 1180 (≈ 512 µg/mL) | 1180 (≈ 512 µg/mL) | 1180 (≈ 512 µg/mL) |  | 1180 (≈ 512 µg/mL) | 1180 (≈ 512 µg/mL) |  |  |  |
